Among the data in patent US20240368174A1, “Antiviral Heterocyclic Compounds” (Enanta Pharmaceuticals, Inc., priority 2023, published 2024) are EC50 values, retold here.

Each structure is given as a SMILES string. Where only a bound is given, the exact number is not on record here.

This test deals with HMPV clinical isolate A2 strain TN 94-49. The experiment in a line: HMPV antiviral assay, Method 1 (LLC-MK2 cells, ATP-Lite). The class given is cell-based. To be noted: human metapneumovirus, hMPV A2 TN/94-49, LLC-MK2 cells. The protocol: In vitro HMPV antiviral activity was evaluated using the clinical isolate A2 strain TN 94-49 (obtained from Dr. John Williams, Vanderbilt University, Tennessee) and LLC-MK2 cells (ATCC #CCL-7), an immortalized kidney epithelial cell line from Macaca mulatta. Compounds were resuspended in dimethyl sulfoxide (DMSO) at 10 mM, serially diluted and added to a 384-well source plate. Subsequently, the compounds were diluted and transferred onto 384-well assay plates using the Echo-650 automated liquid handling system (Beckman Coulter, Indiana). The test compounds were assessed in duplicate at a top concentration of 2 μM followed by 2.5-fold serial dilutions to give a total of 10 concentration points. DMSO control wells were also included on the assay plates and were either infected or not, acting as positive and negative controls. A2 TN 94-49 virus infections were performed in-suspension with LLC-MK2 cells. The cells were washed twice with PBS and removed from the cell-culture flask with 0.25% trypsin-EDTA (Thermo Fisher Scientific, MA). The trypsin-EDTA was inactivated by resuspending in 2% fetal bovine serum (FBS) and OptiMEM (ThermoFisher Scientific, MA) containing 1% penicillin-streptomycin. Cells were pelleted by centrifuging for 5 minutes at 800 rpm, the supernatant was removed, and cells were re-suspended and washed in PBS plus 100 μg/mL CaCl2). This step was performed twice. Cells were then re-suspended in serum-free (SF)-OptiMEM containing 4 μg/mL TPCK-Trypsin (Sigma Aldrich, MO), 1% penicillin-streptomycin (ThermoFisher Scientific, MA) and 100 μg/mL CaCl2). Cells were counted and seeded at a density of 5,000 cells/well, 12.5 μL/well. Virus infections were done at a multiplicity of infection (MOI) of 0.005 with 12.5 μL added per well. Virus infections were performed in infection media which contained SF-OptiMEM, 100 μg/mL CaCl2) and 1% penicillin-streptomycin. HMPV viral stocks are suspended in infection media+5% glycerol, thus an equal volume of infection media+5% glycerol was added to uninfected wells to equalize the final % glycerol across all wells of the assay plate. The final concentration of TPCK-trypsin was 2 μg/mL. The assay plates were incubated at 37° C., 5% CO2 for 7 days. After 7 days incubation, 12.5 μL of ATP-Lite (PerkinElmer, MA) was added to each well and the raw luminescence values were determined using the Envision 2104 (Perkin Elmer, MA). The average of the raw luminescence values for the cells and virus only positive control wells was subtracted from all conditions tested and the percent cell health was determined by dividing these values by the average of the cells only negative control wells. EC50 values were then calculated by non-linear regression using a four-parameter curve logistic equation. The curve fit model employed was XLFit Dose Response One Site Model 200: y=(A+(B/(1+((x/C)^D)))), where A is the minimum y value, B is the maximum y value, C is the log EC50 value, and D is the slope factor.
The term EC50 denotes the concentration giving half of the maximal effect. Lower therefore signals higher potency in that assay. Take `[2H]C([2H])([2H])c1nc2c(OC)cc(C(=O)NC[C@](O)(c3cc4c(c(-c5cc(F)c(F)cc5F)n3)OC[C@]4(C)C(N)=O)C3CC3)cc2cc1Br` [Example 7]: the EC50 was less than 500 nM.

The compound `[2H]C([2H])([2H])c1nc2c(OC)cc(C(=O)NC[C@@](O)(c3ccccc3)c3cc4c(c(-c5ccc6c(c5)OC(F)(F)O6)n3)OC[C@]4(C)C(N)=O)cc2s1` [Example 9] had an EC50 of less than 500 nM.

Regarding `[2H]C([2H])([2H])c1nc2c(OC)cc(C(=O)NC[C@](O)(c3cc4c(c(-c5cc(Cl)c(F)cc5F)n3)OC[C@]4(C)C(N)=O)C3CC3)cc2s1` [Example 10], the EC50 was less than 500 nM.

Turning to `[2H]C([2H])([2H])c1nc2c(OC(F)F)cc(C(=O)NC[C@](O)(c3cc4c(c(-c5cc(Cl)c(F)cc5F)n3)OC[C@]4(C)C(N)=O)C3CC3)cc2cc1Br` [Example 11], the EC50 was more than 500 nM.

Turning to `COc1cc(C(=O)NC[C@@](O)(c2ccc(F)cc2)c2cc3c(c(-c4cc(Cl)c(F)cc4F)n2)OC[C@]3(C)C(N)=O)cc2cn(C(F)F)nc12` [Example 13], the EC50 is less than 500 nM.

`[2H]C([2H])([2H])c1nc2c(OC)cc(C(=O)NC[C@@](O)(c3ccc(F)cc3)c3cc4c(c(-c5cc(Cl)c(F)cc5F)n3)OC[C@]4(C)C(N)=O)cc2s1` [Example 16] showed an EC50 of less than 500 nM.

Consider `COc1cc(C(=O)NC[C@@](O)(c2ccc(F)cc2)c2cc3c(c(-c4cc(Cl)c(F)cc4F)n2)OC[C@]3(C)C(N)=O)cc2cc(Cl)c(C)nc12` [Example 17], for which the EC50 is less than 500 nM.

As to `[2H]C([2H])([2H])c1cc2cc(C(=O)NC[C@](O)(c3cc4c(c(-c5ccc(F)c(Cl)c5)n3)OC[C@]4(C)C(N)=O)C(F)(F)F)cc(OC)c2nc1C` [Example 20], the concentration for a half-maximal effect (EC50) was more than 500 nM.

Turning to `[2H]C([2H])([2H])c1nc2c(OC)cc(C(=O)NC[C@](O)(c3cc4c(c(-c5ccc(F)c(Cl)c5Cl)n3)OC[C@]4(C)C(N)=O)C3CC3)cc2cc1Br` [Example 24], the EC50 was less than 500 nM.

`COc1cc(C(=O)NC[C@@](O)(c2ccc(F)cc2)c2cc3c(c(-c4ccc5c(c4Cl)OC(F)(F)O5)n2)OC[C@]3(C)C(N)=O)cc2cc(C(F)(F)F)cnc12` [Example 26] came in with an EC50 of more than 500 nM.

As to `[2H]C([2H])([2H])c1nc2c(OC)cc(C(=O)NC[C@@](O)(c3ccc(F)cc3)c3cc4c(c(-c5ccc6c(c5Cl)OC(F)(F)O6)n3)OC[C@]4(C)C(N)=O)cc2s1` [Example 27], the EC50 was less than 500 nM.

`[2H]C([2H])([2H])c1cc2cc(C(=O)NC[C@](O)(c3cc4c(c(-c5cc(F)c(F)cc5F)n3)OC[C@]4(C)C(N)=O)C3CC3)cc(OC)c2nc1C([2H])([2H])[2H]` [Example 28] registered an EC50 of less than 500 nM.

Consider `[2H]C([2H])([2H])c1cc2cc(C(=O)NC[C@](O)(c3cc4c(c(-c5cc(Cl)c(F)cc5F)n3)OC[C@]4(C)C(N)=O)C3CC3)cc(OC)c2nc1C([2H])([2H])[2H]` [Example 29], for which the EC50 was less than 500 nM.

In turn, `[2H]c1nc2c(OC)cc(C(=O)NC[C@](O)(c3cc4c(c(-c5cc(F)c(F)cc5F)n3)OC[C@]4(C)C(N)=O)C3CC3)cc2cc1Br` [Example 30] displayed an EC50 of less than 500 nM.

For the compound `COc1cc(C(=O)NC[C@](O)(c2cc3c(c(-c4cc(F)c(F)cc4F)n2)OC[C@]3(C)C(N)=O)C2CC(F)(F)C2)cc2cn(C3CC3)nc12` [Example 31], the EC50 was less than 500 nM.

The compound `C[C@]1(C(N)=O)COc2c1cc([C@@](O)(CNC(=O)c1cc(Cl)c3nn(C4CC4)cc3c1)C1CC1)nc2-c1ccc2c(c1Cl)OC(F)(F)O2` [Example 35] registered a half-maximal effective concentration (EC50) of less than 500 nM.

`COc1cc(C(=O)NC[C@](O)(c2cc3c(c(-c4cccc(SC(F)(F)F)c4)n2)OC[C@]3(C)C(N)=O)C2CC2)cc2cn(C3CC3)nc12` [Example 36]: the EC50 was more than 500 nM.

In turn, `C[C@]1(C(N)=O)COc2c1cc([C@@](O)(CNC(=O)c1cc(OC(F)F)c3nn(C4CC4)cc3c1)C1CC1)nc2-c1ccc(F)c(F)c1Cl` [Example 39] gave an EC50 of less than 500 nM.

In the case of `C[C@]1(C(N)=O)COc2c1cc([C@@](O)(CNC(=O)c1cc(OC(F)F)c3nn(C4CC4)cc3c1)C1CC1)nc2-c1ccc(F)c(Cl)c1F` [Example 40], the EC50 is less than 500 nM.

`COc1cc(C(=O)NC[C@@](O)(c2ccc(F)cc2)c2cc3c(c(-c4ccc(F)c(Cl)c4Cl)n2)OC[C@]3(C)C(N)=O)cc2cn(C(F)F)nc12` [Example 42] showed a half-maximal effective concentration (EC50) of less than 500 nM.

Compound `COc1cc(C(=O)NC[C@@](O)(c2ccc(F)cc2)c2cc3c(c(-c4ccc(F)c(Cl)c4Cl)n2)OC[C@]3(C)C(N)=O)cc2cc(Cl)c(C)nc12` [Example 44] came in with an EC50 of less than 500 nM.

As for `COc1cc(C(=O)NC[C@@](O)(c2ccc(F)cc2)c2cc3c(c(-c4ccc(F)c(Cl)c4Cl)n2)OC[C@]3(C)C(N)=O)cc2cc(C3CC3)nn12` [Example 45], the half-maximal effective concentration (EC50) is less than 500 nM.

For `COc1cc(C(=O)NC[C@](O)(c2cc3c(c(-c4cc(F)c(F)cc4F)n2)OC[C@]3(C)C(N)=O)C2CC2)cc2cc(C(F)(F)F)cnc12` [Example 46], the EC50 was more than 500 nM.

On to `COc1cc(C(=O)NC[C@](O)(c2cc3c(c(-c4cc(Cl)cc(C)c4F)n2)OC[C@]3(C)C(N)=O)C2CC2)cc2cn(C3CC3)nc12` [Example 47], for which the EC50 was more than 500 nM.

`COc1cc(C(=O)NC[C@](O)(c2cc3c(c(-c4ccc5ccsc5c4)n2)OC[C@]3(C)C(N)=O)C2CC2)cc2cn(C3CC3)nc12` [Example 48] returned a concentration for a half-maximal effect (EC50) of more than 500 nM.

In turn, `COc1cc(C(=O)NC[C@](O)(c2cc3c(c(-c4cc(C)cc(F)c4F)n2)OC[C@]3(C)C(N)=O)C2CC2)cc2cn(C3CC3)nc12` [Example 49] came in with an EC50 of more than 500 nM.

Compound `COc1cc(C(=O)NC[C@](O)(c2cc3c(c(-c4cc(Cl)c(C)cc4F)n2)OC[C@]3(C)C(N)=O)C2CC2)cc2cn(C3CC3)nc12` [Example 51] gave an EC50 of more than 500 nM.

`COc1cc(C(=O)NC[C@](O)(c2cc3c(c(-c4ccc5c(c4Cl)OC(F)(F)O5)n2)OC[C@]3(C)C(N)=O)C(F)(F)F)cc2cn(C3CC3)nc12` [Example 52] registered an EC50 of more than 500 nM.

In turn, `COc1cc(C(=O)NC[C@](O)(c2cc3c(c(-c4cc(C(F)(F)F)ccc4C)n2)OC[C@]3(C)C(N)=O)C2CC2)cc2cn(C3CC3)nc12` [Example 53] showed an EC50 of less than 500 nM.

Compound `COc1cc(C(=O)NC[C@](O)(c2cc3c(c(-c4cccc(S(F)(F)(F)(F)F)c4)n2)OC[C@]3(C)C(N)=O)C(F)(F)F)cc2cn(C3CC3)nc12` [Example 54] displayed an EC50 of more than 500 nM.

As for `COc1cc(C(=O)NC[C@](O)(c2cc3c(c(-c4ccc(C(F)(F)F)c(C)c4)n2)OC[C@]3(C)C(N)=O)C2CC2)cc2cn(C3CC3)nc12` [Example 55], the EC50 was more than 500 nM.

On to `COc1cc(C(=O)NC[C@](O)(c2cc3c(c(-c4ccc(C)c(C(F)(F)F)c4)n2)OC[C@]3(C)C(N)=O)C2CC2)cc2cn(C3CC3)nc12` [Example 56], for which the EC50 is more than 500 nM.

In turn, `COc1cc(C(=O)NC[C@@](O)(c2cc3c(c(-c4cc(F)c(F)c(F)c4Cl)n2)OC[C@]3(C)C(N)=O)C(F)(F)F)cc2cn(C3CC3)nc12` [Example 58] had an EC50 of more than 500 nM.

As for `COc1cc(C(=O)NC[C@](O)(c2cc3c(c(-c4cc(F)c(F)c(F)c4Cl)n2)OC[C@]3(C)C(N)=O)C(F)(F)F)cc2cn(C3CC3)nc12` [Example 59], the EC50 is less than 500 nM.

As to `COc1cc(C(=O)NC[C@](O)(c2cc3c(c(-c4ccc(Cl)c(Cl)c4Cl)n2)OC[C@]3(C)C(N)=O)C2CC2)cc2cn(C3CC3)nc12` [Example 60], the 50% effective concentration (EC50) is less than 500 nM.

Compound `COc1cc(C(=O)NC[C@](O)(c2cc3c(c(-c4cc(Cl)cc(Cl)c4Cl)n2)OC[C@]3(C)C(N)=O)C2CC2)cc2cn(C3CC3)nc12` [Example 61] yielded an EC50 of less than 500 nM.

For the compound `COc1cc(C(=O)NC[C@](O)(c2cc3c(c(-c4cc(Cl)c(Cl)cc4Cl)n2)OC[C@]3(C)C(N)=O)C2CC2)cc2cn(C3CC3)nc12` [Example 62], the EC50 was more than 500 nM.

In turn, `COc1cc(C(=O)NC[C@](O)(c2cc3c(c(-c4ccc(F)cc4O)n2)OC[C@]3(C)C(N)=O)C2CC2)cc2cn(C3CC3)nc12` [Example 63] registered an EC50 of more than 500 nM.

For `COc1cc(C(=O)NC[C@@](O)(c2cc3c(c(-c4ccc(F)cc4O)n2)OC[C@]3(C)C(N)=O)C2CC2)cc2cn(C3CC3)nc12` [Example 64], the EC50 was more than 500 nM.

`COc1cc(F)ccc1-c1nc([C@@](O)(CNC(=O)c2cc(OC)c3nn(C4CC4)cc3c2)C2CC2)cc2c1OC[C@]2(C)C(N)=O` [Example 67] came in with an EC50 of more than 500 nM.
